Assay results from PubChem BioAssay AID1259407 (Chemical Carcinogenesis Research Information System (CCRIS), 2018).
Active and inactive are the calls of the source. No rule for the calls is given here.

System: CCRIS mutagenicity, Ames/micronucleus/aberration tests
Experiment: CCRIS mutagenicity studies
[1] = Test System: AMES SALMONELLA TYPHIMURIUM, Strain/Indicator: TA100, Metabolic Activation: NONE, Method: STANDARD PLATE
[2] = Test System: AMES SALMONELLA TYPHIMURIUM, Strain/Indicator: TA98, Metabolic Activation: RAT, LIVER, S-9, AROCLOR 1254, Method: STANDARD PLATE
[3] = Test System: AMES SALMONELLA TYPHIMURIUM, Strain/Indicator: TA100, Metabolic Activation: RAT, LIVER, S-9, AROCLOR 1254, Method: STANDARD PLATE
[4] = Test System: AMES SALMONELLA TYPHIMURIUM, Strain/Indicator: TA1535, Metabolic Activation: RAT, LIVER, S-9, AROCLOR 1254, Method: STANDARD PLATE
[5] = Test System: AMES SALMONELLA TYPHIMURIUM, Strain/Indicator: TA98, Metabolic Activation: NONE, Method: STANDARD PLATE
[6] = Test System: AMES SALMONELLA TYPHIMURIUM, Strain/Indicator: TA1535, Metabolic Activation: NONE, Method: STANDARD PLATE
[7] = Test System: AMES SALMONELLA TYPHIMURIUM, Strain/Indicator: TA1537, Metabolic Activation: NONE, Method: STANDARD PLATE
[8] = Test System: AMES SALMONELLA TYPHIMURIUM, Strain/Indicator: TA1537, Metabolic Activation: RAT, LIVER, S-9, AROCLOR 1254, Method: STANDARD PLATE

Measured: mutagenic call

O=[N+]([O-])c1cc2cccc3c4ccccc4c4cccc1c4c23
active: Test System: AMES SALMONELLA TYPHIMURIUM, Strain/Indicator: TA98, Metabolic Activation: NONE', Method: STANDARD PLATE active; positive | [1] active; positive

Cc1ccc2ccc3cc4ccccc4cc3c2c1
active: Test System: AMES SALMONELLA TYPHIMURIUM, Strain/Indicator: TA100, Metabolic Activation: RAT, NADPH-FORTIFIED HOMOGENIZED HEPATOCYTES, AROCLOR 1254, Method: PREINCUBATION active; positive | Test System: AMES SALMONELLA TYPHIMURIUM, Strain/Indicator: TA100, Metabolic Activation: RAT, SONICATED HEPATOCYTES, AROCLOR 1254, Method: PREINCUBATION active; positive
inactive: Test System: AMES SALMONELLA TYPHIMURIUM, Strain/Indicator: TA100, Metabolic Activation: RAT, INTACT HEPATOCYTES, AROCLOR 1254, Method: PREINCUBATION inactive; negative

O=C1CC[C@@]2(O)[C@H]3Cc4ccc(O)c5c4[C@@]2(CCN3CC2CC2)[C@H]1O5
active: Test System: UDS HUMAN FIBROBLASTS, Strain/Indicator: THY INCORP (NON-S-PHASE), Metabolic Activation: NONE, Method: AUTORADIOGRAPHY active; positive

CC(C)CC(NC(=O)COc1ccc(Cl)cc1Cl)C(=O)O (stereo not given)
inactive: Test System: AMES SALMONELLA TYPHIMURIUM, Strain/Indicator: TA97, Metabolic Activation: RAT, LIVER, S-9, AROCLOR 1254, Method: STANDARD PLATE inactive; negative | Test System: AMES SALMONELLA TYPHIMURIUM, Strain/Indicator: TA97, Metabolic Activation: WOODCHUCK, LIVER, S-9, 3-METHYLCHOLANTHRENE, Method: STANDARD PLATE inactive; negative | [2] inactive; negative | Test System: AMES SALMONELLA TYPHIMURIUM, Strain/Indicator: TA98, Metabolic Activation: WOODCHUCK, LIVER, S-9, 3-METHYLCHOLANTHRENE, Method: STANDARD PLATE inactive; negative | [3] inactive; negative | Test System: AMES SALMONELLA TYPHIMURIUM, Strain/Indicator: TA100, Metabolic Activation: WOODCHUCK, LIVER, S-9, 3-METHYLCHOLANTHRENE, Method: STANDARD PLATE inactive; negative | [4] inactive; negative | Test System: AMES SALMONELLA TYPHIMURIUM, Strain/Indicator: TA1535, Metabolic Activation: WOODCHUCK, LIVER, S-9, 3-METHYLCHOLANTHRENE, Method: STANDARD PLATE inactive; negative | Test System: AMES SALMONELLA TYPHIMURIUM, Strain/Indicator: TA1538, Metabolic Activation: RAT, LIVER, S-9, AROCLOR 1254, Method: STANDARD PLATE inactive; negative | Test System: AMES SALMONELLA TYPHIMURIUM, Strain/Indicator: TA1538, Metabolic Activation: WOODCHUCK, LIVER, S-9, 3-METHYLCHOLANTHRENE, Method: STANDARD PLATE inactive; negative

Cc1cc2c(c3cc4ccccc4cc13)C=C[C@H](O)[C@H]2O
active: Test System: AMES SALMONELLA TYPHIMURIUM, Strain/Indicator: TA100, Metabolic Activation: RAT, LIVER, S-9, AROCLOR 1254, Method: PREINCUBATION active; positive

Cc1cccc2c([N+](=O)[O-])cccc12
active: Test System: AMES SALMONELLA TYPHIMURIUM, Strain/Indicator: TA98, Metabolic Activation: NONE, Method: PREINCUBATION active; positive

O=[N+]([O-])O[C@H]1CO[C@H]2[C@@H]1OC[C@H]2O[N+](=O)[O-]
inactive: [5] inactive; negative | [2] inactive; negative | [1] inactive; negative | [3] inactive; negative | [6] inactive; negative | [4] inactive; negative | [7] inactive; negative | [8] inactive; negative

O=[N+]([O-])c1ccc2cc(O)c3cccc4ccc1c2c43
active: [5] active; positive | [2] active; positive

O=C1c2ccccc2C(=O)N1SC(Cl)(Cl)Cl
inactive: [5] inactive; negative | Test System: AMES SALMONELLA TYPHIMURIUM, Strain/Indicator: TA102, Metabolic Activation: NONE, Method: STANDARD PLATE inactive; negative
active: Test System: AMES SALMONELLA TYPHIMURIUM, Strain/Indicator: TA100, Metabolic Activation: NONE, Method: PREINCUBATION active; positive | [3] active; positive | Test System: AMES SALMONELLA TYPHIMURIUM, Strain/Indicator: TA100, Metabolic Activation: RAT, LIVER, S-9, Method: STANDARD PLATE active; positive | Test System: AMES SALMONELLA TYPHIMURIUM, Strain/Indicator: TA100, Metabolic Activation: S-9 MIX, Method: STANDARD PLATE active; positive | Test System: AMES SALMONELLA TYPHIMURIUM, Strain/Indicator: TA104, Metabolic Activation: NONE, Method: STANDARD PLATE active; positive | Test System: AMES SALMONELLA TYPHIMURIUM, Strain/Indicator: TA104, Metabolic Activation: RAT, LIVER, S-9, PHENOBARBITAL, Method: STANDARD PLATE active; positive | [6] active; positive | [4] active; positive | Test System: E. COLI, Strain/Indicator: WP2, Metabolic Activation: NONE, Method: STANDARD PLATE active; positive | Test System: E. COLI, Strain/Indicator: WP2, Metabolic Activation: RAT, LIVER, S-9, Method: STANDARD PLATE active; positive | Test System: E. COLI, Strain/Indicator: WP2 UVRA, Metabolic Activation: NONE, Method: STANDARD PLATE active; positive | Test System: E. COLI, Strain/Indicator: WP2 UVRA, Metabolic Activation: RAT, LIVER, S-9, AROCLOR 1254, Method: STANDARD PLATE active; positive

O=S(=O)(Oc1ccc(Cl)cc1Cl)c1cccc2cccnc12
inactive: [5] inactive; negative | [1] inactive; negative | [6] inactive; negative | [4] inactive; negative | [7] inactive; negative | [8] inactive; negative
active: [2] active; positive | [3] active; positive
